Assay results: ChEMBL document CHEMBL4002630, “The design and synthesis of novel spirocyclic heterocyclic sulfone ROMK inhibitors as diuretics” (Bioorg Med Chem Lett, 2017); call rule not given here

What was measured:
[1] = target: T1, ATP-sensitive inward rectifier potassium channel 1 (Homo sapiens, UniProt P48048); assay: Inhibition of human ROMK expressed in HEK293 cells after 30 mins by thallium flux assay; type: cell-based
T1 sequence (P48048 whole entry): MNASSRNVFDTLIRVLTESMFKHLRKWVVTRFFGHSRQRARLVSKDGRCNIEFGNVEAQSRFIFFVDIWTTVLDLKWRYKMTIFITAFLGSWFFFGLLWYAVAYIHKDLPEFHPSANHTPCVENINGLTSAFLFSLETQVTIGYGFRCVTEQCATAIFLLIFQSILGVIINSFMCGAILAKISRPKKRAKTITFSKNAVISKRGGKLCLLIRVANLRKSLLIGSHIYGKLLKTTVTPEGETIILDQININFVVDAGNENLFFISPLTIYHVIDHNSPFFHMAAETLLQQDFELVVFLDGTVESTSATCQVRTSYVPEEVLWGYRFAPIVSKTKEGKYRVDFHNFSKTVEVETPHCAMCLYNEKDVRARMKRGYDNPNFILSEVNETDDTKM

[2] = target: T1, ATP-sensitive inward rectifier potassium channel 1; assay: Inhibition of human ROMK expressed in CHO cells by electrophysiology method; type: cell-based
Rattus norvegicus [3] = assay: Antihypertensive activity in rat spontaneous hypertensive model assessed as change in systolic blood pressure at 3 mg/kg, po measured after 3 days; type: functional
[4] = Drug uptake in plasma of rat spontaneous hypertensive model at 3 mg/kg, po measured after 3 days; type: ADME, organism-based; conditions: spontaneously hypertensive rat
[5] = Drug excretion in urine of rat spontaneous hypertensive model at 3 mg/kg, po measured after 4 hrs; type: ADME, organism-based; conditions: spontaneously hypertensive rat, read-out: Drug excretion
[6] = Drug excretion in urine of rat spontaneous hypertensive model at 3 mg/kg, po measured after 24 hrs; type: ADME, organism-based; conditions: spontaneously hypertensive rat, read-out: Drug excretion
[7] = target: T2, ATP-sensitive inward rectifier potassium channel 1 (Rattus norvegicus, UniProt P35560); assay: Inhibition of rat ROMK expressed in HEK293 cells after 30 mins by thallium flux assay; type: cell-based
T2 sequence (P35560 whole entry): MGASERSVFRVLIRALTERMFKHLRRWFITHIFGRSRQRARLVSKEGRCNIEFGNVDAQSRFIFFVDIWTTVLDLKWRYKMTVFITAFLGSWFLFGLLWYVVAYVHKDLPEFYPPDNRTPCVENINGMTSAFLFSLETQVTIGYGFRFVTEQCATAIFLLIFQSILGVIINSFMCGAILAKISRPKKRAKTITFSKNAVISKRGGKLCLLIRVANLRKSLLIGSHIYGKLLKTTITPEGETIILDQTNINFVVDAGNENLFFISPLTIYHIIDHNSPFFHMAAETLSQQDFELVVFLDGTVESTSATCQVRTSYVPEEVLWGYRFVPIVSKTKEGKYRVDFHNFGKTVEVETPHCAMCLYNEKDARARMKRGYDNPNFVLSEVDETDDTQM

Rattus norvegicus [8] = species on record: Rattus norvegicus; conditions: in vivo, iv, 0.5 mg/kg
Rattus norvegicus [9] = species on record: Rattus norvegicus; conditions: in vivo, po, 1 mg/kg
in vivo [10] = conditions: rat, iv, 0.5 mg/kg
in vivo [11] = conditions: rat
in vivo [12] = conditions: rat, po, 1 mg/kg
[13] = target: T3, Voltage-gated inwardly rectifying potassium channel KCNH2 (Homo sapiens, UniProt Q12809)
Homo sapiens [14] = species on record: Homo sapiens; assay: Selectivity ratio of IC50 for human ERG expressed in HEK293 cells to IC50 for human ROMK expressed in HEK293 cells; type: cell-based
[15] = target: T3, Voltage-gated inwardly rectifying potassium channel KCNH2; assay: Inhibition of human ERG by electrophysiology method
Homo sapiens [16] = species on record: Homo sapiens; assay: Selectivity ratio of IC50 for human ERG to IC50 for human ROMK expressed in CHO cells by electrophysiology method; type: cell-based
[17] = AUC (0 to t) in dog at 1 mg/kg, po; type: ADME, organism-based, Canis lupus familiaris; conditions: in vivo
[18] = Half life in dog at 1 mg/kg, po or 0.5 mg/kg, iv; type: ADME, organism-based, Canis lupus familiaris; conditions: in vivo
[19] = Clearance in dog at 1 mg/kg, po or 0.5 mg/kg, iv; type: ADME, organism-based, Canis lupus familiaris; conditions: in vivo
[20] = Volume of distribution at steady state in dog at 1 mg/kg, po or 0.5 mg/kg, iv; type: ADME, organism-based, Canis lupus familiaris; conditions: in vivo, read-out: Vdss
[21] = Oral bioavailability in dog at 1 mg/kg; type: ADME, organism-based, Canis lupus familiaris; conditions: in vivo
Rhesus monkey = assay: AUC (0 to t) in rhesus monkey at 0.5 mg/kg, iv; type: ADME, organism-based, Macaca mulatta; conditions: in vivo
[22] = Half life in rhesus monkey at 0.5 mg/kg, iv; type: ADME, organism-based, Macaca mulatta; conditions: in vivo
[23] = Volume of distribution at steady state in rhesus monkey at 0.5 mg/kg, iv; type: ADME, organism-based, Macaca mulatta; conditions: in vivo, read-out: Vdss
in vivo [24] = conditions: rat, po, 1 mg/kg; remark: listed apart in the source
Canis familiaris = assay: AUC (0 to t) in dog at 0.5 mg/kg, iv; type: ADME, organism-based, Canis lupus familiaris; conditions: in vivo
[25] = Half life in dog at 0.5 mg/kg, iv; type: ADME, organism-based, Canis lupus familiaris; conditions: in vivo
[26] = Volume of distribution at steady state in dog at 0.5 mg/kg, iv; type: ADME, organism-based, Canis lupus familiaris; conditions: in vivo, read-out: Vdss
Rattus norvegicus [27] = assay: Antihypertensive activity in rat spontaneous hypertensive model assessed as change in systolic blood pressure at 25 mg/kg, po measured after 3 days; type: functional

T3 sequence (Q12809 whole entry): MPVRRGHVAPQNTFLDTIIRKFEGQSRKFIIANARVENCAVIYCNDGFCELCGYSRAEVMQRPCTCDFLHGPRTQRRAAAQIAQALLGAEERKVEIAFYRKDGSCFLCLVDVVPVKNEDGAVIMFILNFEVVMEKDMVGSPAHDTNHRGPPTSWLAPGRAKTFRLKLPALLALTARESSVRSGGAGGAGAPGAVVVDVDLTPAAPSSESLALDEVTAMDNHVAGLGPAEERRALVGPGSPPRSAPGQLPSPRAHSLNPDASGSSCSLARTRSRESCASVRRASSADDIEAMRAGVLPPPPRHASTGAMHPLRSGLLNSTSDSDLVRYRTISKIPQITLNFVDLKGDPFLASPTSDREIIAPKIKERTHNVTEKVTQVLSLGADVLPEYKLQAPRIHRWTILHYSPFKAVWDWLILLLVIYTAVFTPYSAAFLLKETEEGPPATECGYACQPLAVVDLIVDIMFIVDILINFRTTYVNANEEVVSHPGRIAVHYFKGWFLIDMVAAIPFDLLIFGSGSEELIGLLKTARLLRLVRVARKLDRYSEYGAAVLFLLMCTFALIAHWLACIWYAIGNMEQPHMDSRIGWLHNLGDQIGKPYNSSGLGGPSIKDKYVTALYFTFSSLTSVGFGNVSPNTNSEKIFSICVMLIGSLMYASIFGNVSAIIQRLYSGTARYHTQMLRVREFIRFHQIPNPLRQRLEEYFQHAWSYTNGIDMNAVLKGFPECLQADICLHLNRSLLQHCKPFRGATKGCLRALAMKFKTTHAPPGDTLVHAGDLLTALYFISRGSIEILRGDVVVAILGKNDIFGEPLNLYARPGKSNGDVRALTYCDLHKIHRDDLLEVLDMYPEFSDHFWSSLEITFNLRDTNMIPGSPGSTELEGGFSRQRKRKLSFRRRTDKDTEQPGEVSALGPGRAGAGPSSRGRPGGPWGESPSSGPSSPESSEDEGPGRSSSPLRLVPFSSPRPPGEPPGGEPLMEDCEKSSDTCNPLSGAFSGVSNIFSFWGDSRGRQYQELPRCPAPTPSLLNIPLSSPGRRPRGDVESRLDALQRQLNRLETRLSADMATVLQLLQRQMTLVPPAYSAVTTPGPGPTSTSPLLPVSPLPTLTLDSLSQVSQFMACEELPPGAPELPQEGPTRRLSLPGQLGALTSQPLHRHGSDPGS

SMILES	IC50 ([1]; read-out: IC50) [nM]	clearance (Rattus norvegicus [8]) [mL/min/kg]	AUC/dose (Rattus norvegicus [9]) [µM·kg·h/mg]	Vd (in vivo [10]) [L/kg]	half-life (in vivo [11]) [h]	bioavailability (in vivo [12]) [%]	IC50 [13] [nM]	Ratio IC50 (Homo sapiens [14])	also measured
Cc1c([C@@H](O)CN2CCC3(CC2)CCN(c2ccc(S(C)(=O)=O)nc2)C3)ccc2c1COC2=O	226	23	0.7	2.8	2	96	–	–	IC50 [2]: 50 nM; Activity (Rattus norvegicus [3]): 0.1 mmHg; concentration at 72 h [4]: 390 nM; concentration at 4 h [5]: 26600 nM; concentration at 24 h [6]: 21200 nM; IC50 [7]: 240 nM
Cc1c([C@@H](O)CN2CCC3(CC2)CC(=O)N(c2ccc(S(C)(=O)=O)nc2)C3)ccc2c1COC2=O	–	–	–	–	–	–	> 60000	–	–
Cc1c([C@@H](O)CN2CCC3(CC2)CCN(c2ccc(C#N)cn2)CC3)ccc2c1COC2=O	47	–	–	–	–	–	–	–	–
Cc1c([C@@H](O)CN2CCC3(CC2)CCN(c2cnc(S(C)(=O)=O)cn2)C3)ccc2c1COC2=O	–	37	0.4	5.6	2.1	37	8900	202	IC50 [2]: 37 nM; IC50 [15]: 22700 nM; Ratio IC50 (Homo sapiens [16]): 614; Activity (Rattus norvegicus [3]): -19.9 mmHg; concentration at 72 h [4]: 78 nM; IC50 [7]: 40 nM; AUC(0-t) [17]: 0.75 µM·h; half-life [18]: 8.6 h; clearance [19]: 42 mL/min/kg; Vd [20]: 17.8 L/kg; bioavailability [21]: 67%; AUCt (Rhesus monkey): 0.61 µM·h; half-life [22]: 1.8 h; Vd [23]: 7 L/kg
Cc1c([C@@H](O)CN2CCC3(CC2)CCN(c2ccc(C(C)(C)O)nc2)C3)ccc2c1COC2=O	–	–	–	–	–	–	29000	–	IC50 ([1]; hek293): Not Active
Cc1c([C@@H](O)CN2CCC3(CC2)CCN(c2ccc([S+](C)[O-])nc2)C3)ccc2c1COC2=O (some centres undefined)	6400	–	–	–	–	–	–	–	–
CSc1ccc(N2CCC3(CCN(C[C@H](O)c4ccc5c(c4C)COC5=O)CC3)C2)cn1	901	–	–	–	–	–	–	–	–
Cc1nc(N2CCC3(CCN(C[C@H](O)c4ccc5c(c4C)COC5=O)CC3)C2)ccc1S(C)(=O)=O	–	–	–	–	–	–	7900	101	–
Cc1c([C@@H](O)CN2CCC3(CC2)CCN(c2ccc(C#N)cn2)C3)ccc2c1COC2=O	–	19.3	2	4.7	3	100	–	–	fraction unbound (in vivo [24]): 0.27
Cc1c([C@@H](O)CN2CCC3(CC2)CCN(c2ccc(C#N)nc2)C3)ccc2c1COC2=O	–	–	–	–	–	–	1200	13	–
Cc1c([C@@H](O)CN2CCC3(CC2)CC(=O)N(c2cncc(C#N)c2)C3)ccc2c1COC2=O	10	–	–	–	–	–	1800	180	–
COc1ccc(N2CCC3(CCN(C[C@H](O)c4ccc5c(c4C)COC5=O)CC3)C2)cn1	1000	–	–	–	–	–	3300	303	–
Cc1c([C@@H](O)CN2CCC3(CC2)CCN(c2cncc(C#N)c2)C3)ccc2c1COC2=O	10	–	–	–	–	–	–	–	–
Cc1c([C@@H](O)CN2CCC3(CC2)CCN(c2ccc(S(C)(=O)=O)cn2)C3)ccc2c1COC2=O	–	24	0.7	3.5	1.8	51	–	–	IC50 [2]: 29 nM; Activity (Rattus norvegicus [3]): -20.3 mmHg; concentration at 72 h [4]: 162 nM; IC50 [7]: 60 nM; AUCt (Canis familiaris): 0.66 µM·h; half-life [25]: 1.7 h; Vd [26]: 6.9 L/kg
Cc1c([C@@H](O)CN2CCC3(CC2)CC(=O)N(c2ccc(S(C)(=O)=O)cn2)C3)ccc2c1COC2=O	–	34	0.5	4.3	2.1	48	17400	328	IC50 [2]: 43 nM; IC50 [15]: 24000 nM; Ratio IC50 (Homo sapiens [16]): 558; Activity (Rattus norvegicus [3]): -15.5 mmHg; concentration at 72 h [4]: 220 nM; IC50 [7]: 40 nM
Cc1c([C@@H](O)CN2CCC3(CC2)CC(=O)N(c2ccc(C#N)cn2)C3)ccc2c1COC2=O	10	–	–	–	–	–	1800	180	–
Cc1c([C@@H](O)CN2CCC3(CC2)CC(=O)N(c2cnc(S(C)(=O)=O)cn2)C3)ccc2c1COC2=O	–	30	0.5	3.8	2.4	46	–	–	IC50 [2]: 34 nM; Activity (Rattus norvegicus [3]): -16 mmHg; concentration at 72 h [4]: 232 nM; IC50 [7]: 60 nM
NS(=O)(=O)c1cc2c(cc1Cl)NCNS2(=O)=O [HYDROCHLOROTHIAZIDE]	–	–	–	–	–	–	–	–	Activity (Rattus norvegicus [27]): -10.5 mmHg
